Data reported in ChEMBL document CHEMBL5149973, “Agaricus bisporus-Derived Glucosamine Hydrochloride Facilitates Skeletal Injury Repair through Bmp Signaling in Zebrafish Osteoporosis Model” (J Nat Prod, 2021).
Calls of active or inactive are those of the source. The rule behind the calls is not given here.

Assays:
Danio rerio [1] = species: Danio rerio; test: Anti-osteoporosis activity in FAC-induced skeletal injury Zebrafish larvae assessed as reduction in bone damage measured for 10 day post fertilization by Alizarin red staining based assay; format: functional, Larva; design: scale not given: the % may be the effect or the level left
Danio rerio [2] = species: Danio rerio; test: Induction of Zebrafish embryo skeletal development assessed as upregulation of col10a1a gene expression in head bone at 0.01 to 0.3 % measured after 72 hrs post fertilization by […] analysis; format: functional, tissue-based; details: dose 0.01-0.3 %
Danio rerio [3] = species: Danio rerio; test: Anti-osteoporosis activity in FAC-induced skeletal injury Zebrafish assessed as rescue of skeletal density in caudal fins at 0.1 % measured for 10 day post fertilization; format: functional, organism-based
Danio rerio [4] = species: Danio rerio; test: Induction of Zebrafish embryo skeletal development assessed as increase in gfp expression level in ventral head at 0.05 to 0.3 % measured at 24 to 72 hrs post fertilization by DAPI staining based analysis; format: functional, tissue-based; details: dose 0.05-0.3 %, time 24-72 hrs
Danio rerio [5] = species: Danio rerio; test: Anti-osteoporosis activity in FAC-induced skeletal injury Zebrafish larvae assessed as increase in Col1a2 mRNA expression level measured for 10 day post fertilization by semiquantitative-PCR analysis; format: functional, organism-based; details: Larva
Danio rerio [6] = species: Danio rerio; test: Induction of Zebrafish Larva cartilage development assessed as increase in bone mineralization at 0.05 to 0.3 % measured at 6 days post fertilization by Alizarin red staining based assay; format: functional; details: dose 0.05-0.3 %, time 6.0 day
Danio rerio [7] = species: Danio rerio; test: Induction of Zebrafish embryo skeletal development assessed as increase in Bmp2b mRNA expression level in head at 0.1 to 0.3 % measured at 24 hrs post fertilization by ISH analysis; format: functional, tissue-based; details: dose 0.1-0.3 %
Danio rerio [8] = species: Danio rerio; test: Suppression of Bmp signaling in Zebrafish embryos assessed as decrease in Sox9b gene expression level at 0.1 % measured at 26 hrs post fertilization by semiquantitative PCR analysis; format: functional, tissue-based; details: Embryo
Danio rerio [9] = species: Danio rerio; test: Induction of Zebrafish embryo skeletal development assessed as increase in Smad1 gene expression level in spine at 0.1 % measured for 0.75 to 24 hrs post fertilization by ISH analysis; format: functional, tissue-based; details: time 0.75-24 hrs
Osteoblast [10] = test: Induction of osteoblast differentiation in Zebrafish embryo assessed as upregulation of runx2b gene expression in head measured at 0.75 to 72 hrs post fertilization at 0.05 to 0.3 % by […] analysis; format: functional; details: Danio rerio, dose 0.05-0.3 %, time 0.75-72 hrs
[11] = Induction of Zebrafish Larva caudal fin regeneration measured for 15 days by Calcein staining based assay; format: functional, Danio rerio; details: time 15 day
Danio rerio [12] = species: Danio rerio; test: Anti-osteoporosis activity in FAC-induced skeletal injury Zebrafish assessed as increase in cumulative bone optical density in caudal fins at 0.1 % measured for 10 day post fertilization; format: functional, organism-based
Danio rerio [13] = species: Danio rerio; test: Anti-osteoporosis activity in FAC-induced skeletal injury Zebrafish larvae assessed as increase in Sox9a mRNA expression level measured for 10 day post fertilization by semiquantitative-PCR analysis; format: functional, organism-based; details: Larva
[14] = Induction of Zebrafish Larva cartilage development assessed as increase in bone mineralization at 0.1 % measured at 6 days post fertilization by Alizarin red staining based assay; format: functional, Danio rerio; details: time 6 day
Danio rerio [15] = species: Danio rerio; test: Anti-osteoporosis activity in FAC-induced skeletal injury Zebrafish assessed as rescue of skeletal density in head at 0.1 % measured for 10 day post fertilization; format: functional, organism-based
Danio rerio [16] = species: Danio rerio; test: Induction of Zebrafish embryo skeletal development assessed as Bmp2b localization in cytoplasm at 0.1 % measured at 24 to 72 hrs post fertilization; format: functional, tissue-based; details: time 24-72 hrs
Danio rerio [17] = species: Danio rerio; test: Suppression of Bmp signaling in Zebrafish embryos assessed as decrease in Bmp4 gene expression level at 0.1 % measured at 26 hrs post fertilization by semiquantitative PCR analysis; format: functional, tissue-based; details: Embryo
Danio rerio [18] = species: Danio rerio; test: Induction of transgenic Zebrafish embryo skeletal development assessed as increase in GFP expression level in neural crest at 0.05 to 0.3 % measured at 24 to 72 hrs post fertilization by DAPI staining based analysis; format: functional, tissue-based; details: dose 0.05-0.3 %, time 24-72 hrs
Osteoblast [19] = test: Induction of osteoblast differentiation in Zebrafish embryo assessed as upregulation of sox9a gene expression in head measured at 0.75 to 72 hrs post fertilization at 0.05 to 0.3 % by […] analysis; format: functional; details: Danio rerio, dose 0.05-0.3 %, time 0.75-72 hrs
Osteoblast [20] = test: Induction of osteoblast differentiation in transgenic osx mCherry Zebrafish embryo assessed as increase in sp7 mRNA expression in distal fin rays at 0.1 % measured after 6 days by ISH analysis; format: functional; details: Danio rerio, time 6.0 day
Danio rerio [21] = species: Danio rerio; test: Induction of Zebrafish embryo skeletal development assessed as increase in gfp expression level in tail at 0.05 to 0.3 % measured at 24 to 72 hrs post fertilization by DAPI staining based analysis; format: functional, tissue-based; details: dose 0.05-0.3 %, time 24-72 hrs
Danio rerio [22] = species: Danio rerio; test: Suppression of Bmp signaling in Zebrafish tBr injected mRNA embryos assessed as reduction in slight loss of tail tissue at 2.5 uM measured at 26 hrs post fertilization; format: functional, Embryo; design: scale not given: the % may be the effect or the level left
[23] = Induction of Zebrafish embryo skeletal development assessed as mortality rate of embryo at 0.1 % measured after 72 hrs post fertilization by Alcian blue staining based assay; format: functional, Danio rerio
[24] = Induction of Zebrafish Larva cartilage development assessed as increase in H3 phenotype ratio at 0.05 % measured after 5 days post fertilization by Alcian blue staining based assay; format: functional, Danio rerio; details: time 5 day
Danio rerio [25] = species: Danio rerio; test: Anti-osteoporosis activity in FAC-induced skeletal injury Zebrafish larvae assessed as increase in Col10a1a mRNA expression level measured for 10 day post fertilization by semiquantitative-PCR analysis; format: functional, organism-based; details: Larva
Danio rerio [26] = species: Danio rerio; test: Suppression of Bmp signaling in Zebrafish embryos assessed as decrease in Sox9a gene expression level at 0.1 % measured at 26 hrs post fertilization by semiquantitative PCR analysis; format: functional, tissue-based; details: Embryo
Danio rerio [27] = species: Danio rerio; test: Induction of Zebrafish embryo skeletal development assessed as upregulation of col10a1a gene expression in palatoquadrate at 0.01 to 0.3 % measured after 72 hrs post fertilization by […] analysis; format: functional, tissue-based; details: dose 0.01-0.3 %
Osteoblast [28] = test: Induction of osteoblast differentiation in Zebrafish embryo assessed as upregulation of sox9b gene expression in head measured at 0.75 to 72 hrs post fertilization at 0.05 to 0.3 % by ELISA analysis; format: functional, tissue-based; details: Danio rerio, dose 0.05-0.3 %, time 0.75-72 hrs
Danio rerio [29] = species: Danio rerio; test: Suppression of Bmp signaling in Zebrafish embryos assessed as decrease in Col10a1a gene expression level at 0.1 % measured at 26 hrs post fertilization by semiquantitative PCR analysis; format: functional, tissue-based; details: Embryo
Danio rerio [30] = species: Danio rerio; test: Induction of Zebrafish embryo skeletal development assessed as increase in Bmp2b mRNA expression level in head at 0.1 % measured at 72 hrs post fertilization; format: functional, tissue-based
Danio rerio [31] = species: Danio rerio; test: Induction of Zebrafish embryo skeletal development assessed as upregulation of […] gene expression in dent at 0.01 to 0.3 % measured after 72 hrs post fertilization by […] analysis; format: functional, tissue-based; details: dose 0.01-0.3 %
Danio rerio [32] = species: Danio rerio; test: Induction of Zebrafish embryo skeletal development assessed as nuclear localization of p-Smad5 in head at 0.1 % measured at 24 to 72 hrs post fertilization by DAPI staining based analysis; format: functional, tissue-based; details: time 24-72 hrs
[33] = Induction of Zebrafish Larva cartilage development assessed as increase in bone mineralization at 0.3 % measured at 6 days post fertilization by Alizarin red staining based assay; format: functional, Danio rerio; details: time 6 day
Danio rerio [34] = species: Danio rerio; test: Suppression of Bmp signaling in Zebrafish embryos assessed as decrease in sp7 gene expression level at 0.1 % measured at 26 hrs post fertilization by semiquantitative PCR analysis; format: functional, tissue-based; details: Embryo

In the case of `Cl.N[C@@H]1[C@@H](O)[C@H](O)[C@@H](CO)O[C@H]1O`, the Activity (Danio rerio [1]) is reported as 70%, the Activity (Danio rerio [2]) is reported as “Active” and the Activity (Danio rerio [3]) is reported as “Active”. For the same compound, the Activity (Danio rerio [4]) was “Active”, the Activity (Danio rerio [5]) was “Active” and the Activity (Danio rerio [6]) was “Active”. The Activity (Danio rerio [7]) was “Active”, the Activity (Danio rerio [8]) was “Active” and the Activity (Danio rerio [9]) was “Active”. The Activity (Osteoblast [10]) was “Active”, the Activity [11] was 50% and the Activity (Danio rerio [12]) was “Active”. The Activity (Danio rerio [13]) was “Active”, the Activity [14] was 88% and the Activity (Danio rerio [15]) was “Active”. For the same compound, the Activity (Danio rerio [16]) was “Active”, the Activity (Danio rerio [17]) was “Active” and the Activity (Danio rerio [18]) was “Active”. For the same compound, the Activity (Osteoblast [19]) was “Active”, the Activity (Osteoblast [20]) was “Active” and the Activity (Danio rerio [21]) was “Active”. The Activity (Danio rerio [22]) was 80%, the Activity [23] was 24% and the Activity [24] was 40%. The Activity (Danio rerio [25]) was “Active”, the Activity (Danio rerio [26]) was “Active” and the Activity (Danio rerio [27]) was “Active”. For the same compound, the Activity (Osteoblast [28]) was “Active”, the Activity (Danio rerio [29]) was “Active” and the Activity (Danio rerio [30]) was “Active”. For the same compound, the Activity (Danio rerio [31]) was “Active”, the Activity (Danio rerio [32]) was “Active” and the Activity [33] was 79%. The Activity (Danio rerio [34]) was “Active”.
